PubChem BioAssay AID1259408 (Genetic Toxicology Data Bank (GENE-TOX), 2018)
Active and inactive are the calls of the source. No rule for the calls is given here.

Test system: GENE-TOX genotoxicity assays, various organisms and cells
Experiment: GENE-TOX mutagenicity studies
Conditions: for call: Assay Type: In vivo carcinogenicity studies
[1] = Species/Cell Type: Chinese hamster lung (V79) cells, Assay Type: Forward gene mutation at the HPRT or ouabain locus, Assay Code: V79+, Evaluation Type: Evaluation A (Pre-1980)
[2] = Species/Cell Type: Salmonella typhimurium (one or more of the five standard strains: TA98, TA100, TA1535, TA1537, and TA1538), Assay Type: Histidine reverse gene mutation, Ames assay, Assay Code: SAL+, Evaluation Type: Evaluation A (Pre-1980)
[3] = Species/Cell Type: Salmonella typhimurium (one or more of the five standard strains: TA98, TA100, TA1535, TA1537, and TA1538), Assay Type: Histidine reverse gene mutation, Ames assay, Assay Code: SAL+*, Activation: With metabolic activation, Evaluation Type: Evaluation A (Pre-1980)

CCN(CCCl)CCCNc1c2ccc(Cl)cc2nc2ccc(OC)cc12
mutagenic call [1]: active; positive
mutagenic call (Species/Cell Type: Chinese hamster ovary (CHO) cells, Assay Type: Forward gene mutation at the HPRT locus, Assay Code: CHO+D, Dose Response: With dose response, Evaluation Type: Evaluation A (Pre-1980)): active; positive
mutagenic call (Species/Cell Type: Drosophila melanogaster, Assay Type: Sex-linked recessive lethal gene mutation, Assay Code: SRL+, Evaluation Type: Evaluation A (Pre-1980)): active; positive
mutagenic call (Species/Cell Type: Neurospora crassa, Assay Type: Forward gene mutation, Assay Code: NEF+, Evaluation Type: Evaluation A (Pre-1980)): active; positive
mutagenic call (Species/Cell Type: Neurospora crassa, Assay Type: Reverse gene mutation, Assay Code: NER+, Evaluation Type: Evaluation A (Pre-1980)): active; positive
call (Species/Cell Type: Nonhuman, Assay Code: CCG+L, Evaluation Type: Evaluation A (Pre-1980)): active; positive
mutagenic call (Species/Cell Type: Rodents, Sex: Male, Assay Type: Dominant lethal test, Assay Code: DLTT, Evaluation Type: Evaluation A (Pre-1980)): no conclusion
mutagenic call (Species/Cell Type: Saccharomyces cerevisiae, Assay Type: Forward gene mutation, Assay Code: YEF+, Evaluation Type: Evaluation A (Pre-1980)): active; positive
mutagenic call (Species/Cell Type: Saccharomyces cerevisiae, Assay Type: Mitotic recombination or gene conversion, Assay Code: YEC+, Evaluation Type: Evaluation A (Pre-1980)): active; positive
mutagenic call (Species/Cell Type: Saccharomyces cerevisiae, Assay Type: Mitotic recombination or gene conversion, Assay Code: YEH+, Evaluation Type: Evaluation A (Pre-1980)): active; positive
mutagenic call (Species/Cell Type: Saccharomyces cerevisiae, Assay Type: Reverse gene mutation, Assay Code: YER+, Evaluation Type: Evaluation A (Pre-1980)): active; positive
mutagenic call [2]: active; positive
mutagenic call (Species/Cell Type: Vicia faba, Assay Type: Chromosome aberrations, Assay Code: VIC+D, Dose Response: With dose response, Evaluation Type: Evaluation A (Pre-1980)): active; positive

Cn1cncc1[N+](=O)[O-]
mutagenic call [2]: active; positive

C1=Cc2c3c1cccc3cc1ccc3ccccc3c21
mutagenic call (Species/Cell Type: Nonhuman, Assay Type: Sister-chromatid exchange (SCE) in vivo, Assay Code: SC3+D, Dose Response: With dose response, Evaluation Type: Evaluation B (Post-1980)): active; positive

OCCN1CCN(C2Cc3cc(Cl)ccc3Sc3ccccc32)CC1 (stereo unspecified)
mutagenic call (Species/Cell Type: Rodents, Sex: Male, Assay Type: Dominant lethal test, Assay Code: DLT-, Evaluation Type: Evaluation A (Pre-1980)): inactive; negative

Clc1ccc(Cl)c(-c2cc(Cl)ccc2Cl)c1
mutagenic call (Species/Cell Type: Salmonella typhimurium (one or more of the five standard strains: TA98, TA100, TA1535, TA1537, and TA1538), Assay Type: Histidine reverse gene mutation, Ames assay, Assay Code: SALT, Evaluation Type: Evaluation A (Pre-1980)): no conclusion

O=[N+]([O-])c1ccc(-c2ncn[nH]2)o1
mutagenic call (Species/Cell Type: Escherichia coli WP2, Assay Type: Tryptophan reverse gene mutation, Assay Code: WP2-, Evaluation Type: Evaluation A (Pre-1980)): inactive; negative
mutagenic call (Species/Cell Type: Escherichia coli WP2 UVRA, Assay Type: Tryptophan reverse gene mutation, Assay Code: WPU+, Evaluation Type: Evaluation A (Pre-1980)): active; positive

Oc1ccc2ccccc2c1N=Nc1ccc(N=Nc2ccccc2)cc1
mutagenic call (Species/Cell Type: Bacillus subtilis (H17 vs M45T), Assay Type: Rec-assay, spot test, DNA effects (bacterial DNA repair), Assay Code: REXT, Evaluation Type: Evaluation A (Pre-1980)): no conclusion

O=C(OCC1=CCN2CC[C@@H](OC(=O)c3ccc([N+](=O)[O-])cc3)[C@@H]12)c1ccc([N+](=O)[O-])cc1
mutagenic call (Species/Cell Type: Allium cepa, Assay Type: Chromosome aberrations, Assay Code: ALC+, Evaluation Type: Evaluation A (Pre-1980)): active; positive

NNc1ccccc1
mutagenic call (Species/Cell Type: Mammalian polychromatic erythrocytes, Assay Type: Micronucleus test, chromosome aberrations, Assay Code: MNT+, Evaluation Type: Evaluation B (Post-1980)): active; positive

Nc1ccc(-c2ccc(N)cc2Cl)c(Cl)c1
mutagenic call (Species/Cell Type: Human diploid fibroblasts, Assay Type: Unscheduled DNA synthesis (UDS) in vitro, DNA effects, Assay Code: UDH+*, Activation: With metabolic activation, Evaluation Type: Evaluation A (Pre-1980)): active; positive

Cc1cc2c3ccccc3ccc2c2ccccc12
mutagenic call [3]: active; positive

C[C@@H]1O[C@H]1P(=O)(O)O
mutagenic call (Species/Cell Type: Mammalian polychromatic erythrocytes, Assay Type: Micronucleus test, chromosome aberrations, Assay Code: MNTT, Evaluation Type: Evaluation B (Post-1980)): no conclusion

O=C1c2ccccc2C(=O)c2c(O[C@@H]3O[C@H](CO)[C@@H](O)[C@H](O)[C@H]3O)ccc(O)c21
mutagenic call [3]: active; positive

O=C(OCC1CCN2CCC(OC(=O)c3ccc([N+](=O)[O-])cc3)C12)c1ccc([N+](=O)[O-])cc1 (stereo unspecified)
mutagenic call (Species/Cell Type: Allium cepa, Assay Type: Chromosome aberrations, Assay Code: ALC-, Evaluation Type: Evaluation A (Pre-1980)): inactive; negative

Nc1nc(-c2cc([N+](=O)[O-])cs2)cs1
mutagenic call [2]: active; positive

Nc1ccc2[nH]ncc2c1
mutagenic call (Species/Cell Type: Rat, Sex: Male, Assay Type: Sperm morphology, Assay Code: SPA+, Evaluation Type: Evaluation A (Pre-1980)): active; positive

Nc1ncnc2n[nH]nc12
mutagenic call (Species/Cell Type: Vicia faba, Assay Type: Chromosome aberrations, Assay Code: VIC+, Evaluation Type: Evaluation A (Pre-1980)): active; positive

Cc1cc2nc3cc(C)c(N)cc3[n+](-c3ccccc3)c2cc1N
mutagenic call (Species/Cell Type: Bacillus subtilis (H17 vs M45), Assay Type: Rec-assay, spot test, DNA effects (bacterial DNA repair), Assay Code: REWT, Evaluation Type: Evaluation A (Pre-1980)): no conclusion

O=C(CCl)CCl
mutagenic call (Species/Cell Type: Drosophila melanogaster, Assay Type: Sex-linked recessive lethal gene mutation, Assay Code: SRLT, Evaluation Type: Evaluation A (Pre-1980)): no conclusion
mutagenic call [2]: active; positive

Cc1ccc2cc3c4c(ccc3c3c2c1CC3)C=C[C@H](O)[C@H]4O
mutagenic call [1]: active; positive
call (Species/Cell Type: Nonhuman, Assay Code: CCGT, Evaluation Type: Evaluation A (Pre-1980)): no conclusion
mutagenic call [3]: active; positive
